From ChEMBL document CHEMBL3046874, “Synthesis and biological evaluation of chalcones and acetyl pyrazoline derivatives comprising furan nucleus as an antitubercular agents” (2012)

Legend:
Assay type in all cases: functional
[1] = test system: Staphylococcus aureus; test: Antibacterial activity against Staphylococcus aureus ATCC 25923 after 24 hr by agar well diffusion method
[2] = test system: Priestia megaterium; test: Antibacterial activity against Bacillus megaterium ATCC 14518 after 24 hr by agar well diffusion method
[3] = test system: Proteus vulgaris; test: Antibacterial activity against Proteus vulgaris ATCC 29905 after 24 hr by agar well diffusion method
[4] = test system: Aspergillus niger; test: Antifungal activity against Aspergillus niger ATCC 9029 after 7 days by agar plate method
[5] = test system: Escherichia coli; test: Antibacterial activity against Escherichia coli ATCC 25922 after 24 hr by agar well diffusion method
[6] = test system: Mycobacterium tuberculosis; test: Growth inhibition of Mycobacterium tuberculosis H37Rv at 6.25 ug/ml by radiometric anlaysis; details: read-out: GI
[7] = test system: Mycobacterium tuberculosis; test: Growth inhibition of Mycobacterium tuberculosis H37Rv at 0.25 ug/ml by radiometric anlaysis; details: read-out: GI

| Structure (SMILES) | inhibition zone (IZ) [1] | inhibition zone (IZ) [2] | inhibition zone (IZ) [3] | diameter of the inhibition zone (DIZ) [4] | inhibition zone (IZ) [5] | inhibition of growth at 6.25 µg/mL [6] | inhibition of growth at 0.25 µg/mL [7] |
| --- | --- | --- | --- | --- | --- | --- | --- |
| CC(=O)N1N=C(c2ccc(C)cc2)CC1c1ccc(-c2ccc(Cl)c(Cl)c2)o1 (configuration not stated) | 21 mm | 19 mm | 19 mm | 20 mm | 12 mm | 0% |  |
| CC1(C)S[C@@H]2[C@H](NC(=O)[C@H](N)c3ccc(O)cc3)C(=O)N2[C@H]1C(=O)O [AMOXICILLIN] | 22 mm | 24 mm | 20 mm | 0 mm | 18 mm |  |  |
| O=C(/C=C/c1ccc(-c2ccc(Cl)c(Cl)c2)o1)c1cccc([N+](=O)[O-])c1 | 16 mm | 19 mm | 17 mm | 17 mm | 11 mm |  |  |
| CCn1cc(C(=O)O)c(=O)c2cc(F)c(N3CCNCC3)cc21 [NORFLOXACIN] | 19 mm | 23 mm | 21 mm | 0 mm | 20 mm |  |  |
| CC(=O)N1N=C(c2ccccc2)CC1c1ccc(-c2ccc(Cl)c(Cl)c2)o1 (configuration not stated) | 20 mm | 17 mm | 17 mm | 13 mm | 18 mm | 0% |  |
| CC(=O)N1N=C(c2ccc(F)cc2)CC1c1ccc(-c2ccc(Cl)c(Cl)c2)o1 (configuration not stated) | 13 mm | 13 mm | 13 mm | 17 mm | 12 mm | 1% |  |
| O=C(/C=C/c1ccc(-c2ccc(Cl)c(Cl)c2)o1)c1ccc(Cl)cc1 | 20 mm | 15 mm | 15 mm | 14 mm | 14 mm |  |  |
| CC(=O)N1N=C(c2ccc([N+](=O)[O-])cc2)CC1c1ccc(-c2ccc(Cl)c(Cl)c2)o1 (configuration not stated) | 12 mm | 16 mm | 14 mm | 13 mm | 14 mm | 19% |  |
| O=C(/C=C/c1ccc(-c2ccc(Cl)c(Cl)c2)o1)c1ccccc1 | 14 mm | 20 mm | 15 mm | 19 mm | 19 mm |  |  |
| CC(=O)N1N=C(c2ccccc2O)CC1c1ccc(-c2ccc(Cl)c(Cl)c2)o1 (configuration not stated) | 16 mm | 18 mm | 11 mm | 15 mm | 13 mm | 11% |  |
| CC(=O)N1N=C(c2ccc(N)cc2)CC1c1ccc(-c2ccc(Cl)c(Cl)c2)o1 (configuration not stated) | 17 mm | 17 mm | 12 mm | 19 mm | 17 mm | 74% |  |
| O=C(/C=C/c1ccc(-c2ccc(Cl)c(Cl)c2)o1)c1ccc(F)cc1 | 12 mm | 17 mm | 14 mm | 14 mm | 16 mm |  |  |
| Cc1ccc(C(=O)/C=C/c2ccc(-c3ccc(Cl)c(Cl)c3)o2)cc1 | 13 mm | 22 mm | 14 mm | 13 mm | 19 mm |  |  |
| CC(=O)N1N=C(c2cccc(N)c2)CC1c1ccc(-c2ccc(Cl)c(Cl)c2)o1 (configuration not stated) | 13 mm | 14 mm | 15 mm | 17 mm | 15 mm | 4% |  |
| COC1=CC(=O)C[C@@H](C)[C@]12Oc1c(Cl)c(OC)cc(OC)c1C2=O [GRISEOFULVIN] | 0 mm | 0 mm | 0 mm | 26 mm | 0 mm |  |  |
| CC(=O)N1N=C(c2ccc(Cl)cc2)CC1c1ccc(-c2ccc(Cl)c(Cl)c2)o1 (configuration not stated) | 16 mm | 21 mm | 18 mm | 21 mm | 19 mm | 17% |  |
| COc1ccc(C2=NN(C(C)=O)C(c3ccc(-c4ccc(Cl)c(Cl)c4)o3)C2)cc1 (configuration not stated) | 19 mm | 12 mm | 14 mm | 19 mm | 20 mm | 0% |  |
| COc1ccc(C(=O)/C=C/c2ccc(-c3ccc(Cl)c(Cl)c3)o2)cc1 | 20 mm | 13 mm | 19 mm | 19 mm | 12 mm |  |  |
| CC1(C)S[C@@H]2[C@H](NC(=O)[C@H](N)c3ccccc3)C(=O)N2[C@H]1C(=O)O [AMPICILLIN] | 20 mm | 22 mm | 17 mm | 0 mm | 19 mm |  |  |
| CC(=O)N1N=C(c2cccc([N+](=O)[O-])c2)CC1c1ccc(-c2ccc(Cl)c(Cl)c2)o1 (configuration not stated) | 14 mm | 13 mm | 13 mm | 17 mm | 17 mm | 6% |  |
| Nc1cccc(C(=O)/C=C/c2ccc(-c3ccc(Cl)c(Cl)c3)o2)c1 | 19 mm | 14 mm | 17 mm | 17 mm | 16 mm |  |  |
| O=C(/C=C/c1ccc(-c2ccc(Cl)c(Cl)c2)o1)c1ccc(Br)cc1 | 19 mm | 21 mm | 16 mm | 21 mm | 20 mm |  |  |
| CC(=O)N1N=C(c2ccc(Br)cc2)CC1c1ccc(-c2ccc(Cl)c(Cl)c2)o1 (configuration not stated) | 12 mm | 20 mm | 19 mm | 18 mm | 11 mm | 6% |  |
| O=C(/C=C/c1ccc(-c2ccc(Cl)c(Cl)c2)o1)c1ccccc1O | 16 mm | 12 mm | 11 mm | 18 mm | 14 mm |  |  |
| Nc1ccc(C(=O)/C=C/c2ccc(-c3ccc(Cl)c(Cl)c3)o2)cc1 | 12 mm | 17 mm | 12 mm | 18 mm | 13 mm |  |  |
| CO[C@H]1/C=C/O[C@@]2(C)Oc3c(C)c(O)c4c(O)c(c(/C=N/N5CCN(C)CC5)c(O)c4c3C2=O)NC(=O)/C(C)=C\C=C\[C@H](C)[C@H](O)[C@@H](C)[C@@H](O)[C@@H](C)[C@H](OC(C)=O)[C@@H]1C [RIFAMPIN] |  |  |  |  |  |  | 98% |
| O=C(/C=C/c1ccc(-c2ccc(Cl)c(Cl)c2)o1)c1ccc([N+](=O)[O-])cc1 | 17 mm | 11 mm | 15 mm | 19 mm | 12 mm |  |  |
| CC1(C)S[C@@H]2[C@H](NC(=O)Cc3ccccc3)C(=O)N2[C@H]1C(=O)O [PENICILLIN G] | 24 mm | 25 mm | 23 mm | 0 mm | 22 mm |  |  |
